How the values were obtained:
[1] = system: spontaneous hypertensive rats; test: Anti-hypertensive test in conscious spontaneous hypertensive rats, mean arterial blood pressure by femoral artery puncture; assay type: in vivo, rat; details: 100 mg./kg. by gavage in 2% starch, second identical dose at the 24th hour, vehicle controls 166
Protocol: These compounds have been tested pharmacologically and found to have such properties with a desirable wide spread between does producing lowered blood pressure and toxic symptoms. In determining this effect of these compounds on hypertension, adult male, 16-20 weeks old, spontaneous hypertensive rats from Taconic Farms, Germantown, New York, weighing about 300 grams are used. The rats are dosed by gavage with the test compounds at the indicated dose in mg. per kg. of body weight. All doses of drug were suspended in 2% starch (2 ml./kg.). A second identical dose of the test compound is given at the 24th hour. The mean arterial blood pressure (MAP) of the conscious rats is measured directly by femoral artery puncture at the 28th hour.

[2] = system: cyclic-AMP phosphodiesterase (mouse skin PDE); test: Mouse skin phosphodiesterase (PDE) inhibition test (A); assay type: biochemical; set-up: key: Active: A compound is considered active if it inhibits more than theophylline, that is, to 50% of control of 1 mM concentration of compound, or to 80% of control for 0.05 mM concentration of compound; details: final concentration of test compound 10 μg./ml.; epidermal homogenate supernatant of hairless mice

SMILES: c1cc(Nc2nncc3cncn23)n[nH]1 [4-(3-Pyrazolylamino)-imidazo[1,5-d]-as-triazine]
- MAP (mm. Hg) 28th hour [1]: 134 mm. Hg
- Mouse Skin Phosphodiesterase (A) [2]: Active

SMILES: CN(C)CCNc1nncc2cncn12 [4-[(2-Dimethylaminoethyl)amino]-imidazo[1,5-d]-as-triazine]
- Mouse Skin Phosphodiesterase (A) [2]: Active

SMILES: CNc1nncc2cncn12 [4-methylamino-imidazo[1,5-d]-as-triazine, 4-Methylamino-imidazo[1,5-d]-as-triazine]
- MAP (mm. Hg) 28th hour [1]: 131 mm. Hg

SMILES: CCCc1nc(C)c2cnnc(SC)n12 [Example 61, 8-Methyl-4-(methylthio)-6-propylimidazo[1,5-d]-as-triazine]
- herbicidal activity (Herbicidal activity): possesses herbicidal activity
